The record followed here is patent US20110218188A1, “SUBSTITUTED (PYRIDYL)-AZINYLAMINE DERIVATIVES AS FUNGICIDES” (priority 2008, published 2011).

Marks after values point to notes of the source that are not given here.

The first series is described as follows: Measurement of logP values by HPLC on reversed phase columns (EEC directive 79/831 Annex V.A8). The format is physicochemical. Conditions: pH 2.3.
Turning to `CCN(C)C(=O)c1cccc(-c2ccnc(Nc3ccnc(Cl)c3)n2)n1` [Example A36], the logP is 2.25^[b].

Take `CCCN(CCO)C(=O)c1cc(-c2ncnc(Nc3cccc(Cl)c3)n2)ccn1` [Example B181]: the “logP [b]” value was 2.51[b].

The series is the same for the next values; noted with them: pH 2.7.
Compound `CN(C)C(=O)c1cc(-c2ncnc(Nc3ccc(F)cc3)n2)ccn1` [Example B18] yielded a logP of 2.02.

For `CCN(C)C(=S)c1cc(-c2ncnc(N(C(=O)COC)c3cccc(F)c3)n2)ccn1` [Example B338], the logP is 2.62.

With `CN(C)C(=O)c1cc(-c2ncnc(Nc3cccc(C#N)c3)n2)ccn1` [Example B294], the logP is 1.88.

The compound `CCON(CC)C(=O)c1cc(-c2ncnc(Nc3cccc(C(F)F)c3)n2)ccn1` [B414] displayed a logP of 2.88.

On to `CCC(CC#N)NC(=O)c1cc(-c2ncnc(Nc3cccc(Cl)c3)n2)ccn1` (centres unmarked) [Example B95], for which the logP worked out at 3.35.

`NC(=S)c1cc(-c2ncnc(Nc3ccc(F)cc3)n2)ccn1` [B322] yielded a logP of 2.47.

The compound `CCN(CC)C(=O)c1cc(-c2ccnc(Nc3ccnc(Cl)c3)n2)ccn1` [Example A27] displayed a logP of 2.17.

In the case of `CCN(C)C(=S)c1cc(-c2ncnc(Nc3cccc(SC)c3)n2)ccn1` [Example B223], the logP is listed as 3.17.

On to `CCCCCCN(CCCCCC)C(=O)c1cc(-c2ncnc(Nc3cccc(Cl)c3)n2)ccn1` [B174], for which the logP is reported as 6.69.

In turn, `CCC(=NOCC(F)(F)F)c1cc(-c2ncnc(Nc3cccc(Cl)c3)n2)ccn1` (mixture of isomers) [B58] showed a logP of 5.39.

On to `CN(CC1CC1)C(=S)c1cc(-c2ncnc(Nc3cccc(Cl)c3)n2)ccn1` [Example B330], for which the logP is on record as 3.76.

The compound `CN(CC(F)F)C(=O)c1cc(-c2ncnc(Nc3cccc(C(F)F)c3)n2)ccn1` [Example B371] came in with a lipophilicity (logP) of 2.75.

In the case of `CCN(C)C(=O)c1cc(-c2ncnc(Nc3cccc(C(F)F)c3)n2)ccn1` [Example B400], the logP came to 2.44.

As for `COC(=O)c1cc(-c2ncnc(Nc3ccc(OC)c(F)c3)n2)ccn1` [B418], the logP stood at 2.37.

Turning to `CC(C)C(=O)O/N=C(/N)c1cc(-c2ncnc(Nc3cccc(Cl)c3)n2)ccn1` [B107], the logP amounted to 3.69.

`COCC(C)NC(=O)c1cc(-c2ncnc(Nc3cccc(Cl)c3)n2)ccn1` (centres unmarked) [B51] gave a logP of 3.21.

For the compound `CCCN(C)C(=O)c1cc(-c2ncnc(Nc3cccc(C#N)c3)n2)ccn1` [Example B293], the logP is on record as 2.45.

For `CC(=O)Nc1cccc(Nc2ncnc(-c3ccnc(C(=O)N(C)CC(C)C)c3)n2)c1` [Example B308], the logP worked out at 2.1.

As for `CCCC(C)NC(=O)c1cc(-c2ncnc(Nc3ccc(F)c(Cl)c3)n2)ccn1` (centres unmarked) [B200], the lipophilicity (logP) amounted to 4.64.

As to `O=C(c1cc(-c2ncnc(Nc3cccc(Cl)c3)n2)ccn1)N1CC=CCC1` [Example B153], the logP is 3.11.

As for `CN(CC1CC1)C(=S)c1cc(-c2ncnc(Nc3cccc(C(F)F)c3)n2)ccn1` [Example B331], the logP turned out to be 3.37.

`CCN(CC)C(=O)c1cc(-c2ncnc(Nc3cccc(Cl)c3)n2)ccn1` [Example B130] registered a logP of 3.06.

Take `CN(CC1CCCO1)C(=O)c1cc(-c2ccnc(Nc3ccnc(Cl)c3)n2)ccn1` (centres unmarked) [Example A15]: the logP was 1.99.

`CC(=NOCC1CC1)c1cc(-c2ncnc(Nc3cccc(Cl)c3)n2)ccn1` (mixture of isomers) [Example B34] gave a logP of 4.94.

`CCOc1cccc(Nc2ncnc(-c3ccnc(C(=S)N(C)CC)c3)n2)c1` [Example B255] registered a logP of 3.15.

`CN(C)C(=O)c1cc(-c2ncnc(Nc3ccc(F)c(F)c3)n2)ccn1` [Example B377] registered a logP of 2.25.

For `CC(=O)Nc1cccc(Nc2ncnc(-c3ccnc(C(=O)N(C)C(C)C)c3)n2)c1` [B309], the logP came out at 1.81.

Compound `CN(CC1CC1)C(=O)c1cc(-c2ncnc(Nc3ccc(Cl)c(C(F)F)c3)n2)ccn1` [Example B390] showed a logP of 3.31.

`COCCN(C)C(=O)c1cc(-c2ncnc(Nc3cccc(COC)c3)n2)ccn1` [Example B247] returned a logP of 2.05.

With `COCC(COC)NC(=O)c1cc(-c2ncnc(Nc3cccc(Cl)c3)n2)ccn1` [B86], the logP was found to be 3.39.

In turn, `CN(C)C(=O)c1cc(-c2ncnc(Nc3cc(F)ccc3F)n2)ccn1` [Example B354] showed a logP of 2.1.

For `CN(CCC#N)C(=O)c1cc(-c2ncnc(Nc3cccc(C(F)F)c3)n2)ccn1` [Example B284], the logP is given as 2.25.

`CCCN(C)C(=O)c1cc(-c2ncnc(Nc3ccc(C)c(Cl)c3)n2)ccn1` [Example B374]: the logP is 3.42.

Compound `CN(CCC#N)C(=O)c1cc(-c2ncnc(Nc3ccc(Cl)c(C(F)F)c3)n2)ccn1` [Example B389] showed a logP of 2.69.

With `CN(CCC#N)C(=O)c1cc(-c2ncnc(Nc3ccc(F)c(F)c3)n2)ccn1` [Example B384], the logP came to 2.35.

Turning to `CCN(C)C(=O)c1cc(-c2ncnc(Nc3cccc(OC(F)(F)C(F)F)c3)n2)ccn1` [Example B260], the logP worked out at 2.92.

As to `CCN(CC)C(=S)c1cc(-c2ncnc(Nc3cccc(F)c3)n2)ccn1` [Example B11], the logP is 3.31.

The compound `N#CC1CCN(C(=O)c2cc(-c3ncnc(Nc4cccc(Cl)c4)n3)ccn2)CC1` [Example B170] showed a logP of 2.59.

As to `O=C(c1cc(Nc2nccc(-c3ccnc(C(=O)N4CCOCC4)c3)n2)ccn1)N1CCOCC1` [Example A23], the logP came to 0.92.

As to `CCC(=NOC(C1CC1)C1CC1)c1cc(-c2ncnc(Nc3cccc(Cl)c3)n2)ccn1` (mixture of isomers) [B79], the logP was 6.59.

For the compound `CC(=NNCCC#N)c1cc(-c2ncnc(Nc3cccc(Cl)c3)n2)ccn1` [Example B81, 3-{2-[1-(4-{4-[(3-chlorophenyl)amino]-1,3,5-triazin-2-yl}pyridin-2-yl)ethylidene]hydrazinyl}propanenitrile], the chromatographic logP was 2.5.

Regarding `C#CCON=C(C)c1cc(-c2ncnc(Nc3cccc(Cl)c3)n2)ccn1` (mixture of isomers) [Example B37], the logP is recorded as 3.98.

Regarding `CN(CCC#N)C(=O)c1cc(-c2ncnc(Nc3cccc(OC(F)(F)F)c3)n2)ccn1` [Example B262], the logP came out at 2.8.

`CCC(CC)NC(=O)c1cc(-c2ncnc(Nc3cccc(Cl)c3)n2)ccn1` [B63] registered a logP of 4.22.

`CC(C)N(C)C(=O)c1cc(-c2ncnc(Nc3cccc(C(F)F)c3)n2)ccn1` [Example B290] showed a logP of 2.65.

For `O=CN1CCN(C(=O)c2cc(-c3ncnc(Nc4cccc(Cl)c4)n3)ccn2)CC1` [Example B163], the logP was 2.04.

On to `CCCC#CCON=C(CC)c1cc(-c2ncnc(Nc3cccc(Cl)c3)n2)ccn1` (mixture of isomers) [Example B46], for which the logP is 5.81.

Consider `CCCNC(=O)c1cc(-c2ncnc(Nc3cccc(F)c3)n2)ccn1` [B323], for which the logP was determined as 3.17.

On to `CCN(CC)C(=S)c1cc(-c2ncnc(Nc3cccc(C(F)F)c3)n2)ccn1` [Example B328], for which the logP is 3.27. The logP values of the last two compounds are within 0.2 log units of each other.

For the compound `CC(=NOCc1ccccc1)c1cc(-c2ncnc(Nc3cccc(Cl)c3)n2)ccn1` (mixture of isomers) [B50], the logP came out at 5.18.

`CC(C)CN(C)C(=O)c1cc(-c2ncnc(Nc3cccc(F)c3)n2)ccn1` [Example B6] came in with a logP of 2.92.

In turn, `CCCN(CCC)C(=O)c1cc(-c2ncnc(Nc3cccc(Cl)c3)n2)ccn1` [Example B124] returned a logP of 3.89.

In turn, `CCCN(C)C(=O)c1cc(-c2ncnc(Nc3ccc(F)c(F)c3)n2)ccn1` [Example B379] yielded a logP of 2.86.

On to `CCCN(C)C(=S)c1cc(-c2ncnc(Nc3ccc(F)c(C(F)F)c3)n2)ccn1` [Example B334], for which the logP was 3.4.

For the compound `COC(=O)c1cc(-c2ncnc(Nc3ccc(F)c(OC)c3)n2)ccn1` [B416], the logP was 2.43.

Regarding `CCN(CC)C(=S)c1cc(-c2ncnc(Nc3ccsc3)n2)ccn1` [Example C22], the logP is reported as 3.02.

In turn, `COCCNC(=O)c1cc(-c2ncnc(Nc3cccc(SC)c3)n2)ccn1` [B214] registered a logP of 2.92.

`CCCN(C)C(=S)c1cc(-c2ncnc(Nc3cccc(COC)c3)n2)ccn1` [Example B250] showed a logP of 3.05. This logP and that of the compound before are within 0.2 log units of each other.

With `CCN(CC)C(=O)c1cc(-c2ncnc(Nc3cccc(OC)c3)n2)ccn1` [Example B273], the logP was determined as 2.59.

For the compound `Cc1ccc(Nc2ncnc(-c3ccnc(C(=O)N(C)CC4CC4)c3)n2)cc1Cl` [Example B367], the logP came to 3.53.

With `COc1cccc(Nc2ncnc(-c3ccnc(C(=O)N(C)C(C)C)c3)n2)c1` [Example B279], the log partition coefficient (logP) is recorded as 2.51.

The compound `CN(C(=O)c1cc(-c2ncnc(Nc3cccc(Cl)c3)n2)ccn1)C1CCCC1` [Example B149] gave a logP of 3.51.

Regarding `CN(CC(F)F)C(=O)c1cc(-c2ncnc(Nc3cccc(OC(F)F)c3)n2)ccn1` [Example B370], the logP turned out to be 2.86.

Regarding `COCCN(C)C(=O)c1cc(-c2ncnc(Nc3cccc(C(F)(F)F)c3)n2)ccn1` [Example B361], the logP came out at 2.75.

`CCCNC(=O)c1cc(-c2ncnc(Nc3cccc(Cl)c3)n2)ccn1` [B103] gave a logP of 3.62.

As for `O=C(c1cc(-c2ccnc(Nc3ccnc(Cl)c3)n2)ccn1)N1CC=CCC1` [Example A2], the logP was 2.2.

Turning to `CN(C)C(=O)c1cc(-c2ncnc(Nc3cccc(C(F)F)c3)n2)ccn1` [Example B288], the logP is listed as 2.17.

`CN(CCC#N)C(=O)c1cc(-c2ncnc(Nc3ccccc3)n2)ccn1` [Example B310] displayed a logP of 2.07.

For the compound `C=CCNC(=O)c1cc(-c2ncnc(Nc3cccc(F)c3)n2)ccn1` [B325], the logP is 3.08.

Take `CCN(C)C(=O)c1cc(-c2ncnc(Nc3ccc(F)c(C(F)F)c3)n2)ccn1` [Example B394]: the logP came out at 2.55.

The compound `Cc1ccc(Nc2ncnc(-c3ccnc(C(=O)N4CCCC4)c3)n2)cc1Cl` [B224] came in with a logP of 3.26.

Staying with this series, now noted: pH 7.8.
On to `NC(=O)c1cc(-c2ncnc(Nc3cccc(C(F)F)c3)n2)ccn1` [B405], for which the logP is 2.04^[c].
